Measurements reported in patent US9643967B2, “Pyrrolo[3,2-c]pyridine derivatives as TLR inhibitors” (TAKEDA PHARMACEUTICAL COMPANY LIMITED, priority 2013, dated 2017).

biological target: T1, hTLR9 (Homo sapiens, UniProt Q9NR96); assay: hTLR9 antagonism (SEAP inhibition assay) in HEK-Blue-hTLR9 (HEK293) cells, ODN-2006 stimulated; format: cell-based; conditions: 1 μM; SEAP, HEK-Blue-hTLR9 cells
T1 construct: expressed in transfected cells; host or cells: HEK-Blue-hTLR9 cells (HEK293)
T1 sequence (Q9NR96 26-1032): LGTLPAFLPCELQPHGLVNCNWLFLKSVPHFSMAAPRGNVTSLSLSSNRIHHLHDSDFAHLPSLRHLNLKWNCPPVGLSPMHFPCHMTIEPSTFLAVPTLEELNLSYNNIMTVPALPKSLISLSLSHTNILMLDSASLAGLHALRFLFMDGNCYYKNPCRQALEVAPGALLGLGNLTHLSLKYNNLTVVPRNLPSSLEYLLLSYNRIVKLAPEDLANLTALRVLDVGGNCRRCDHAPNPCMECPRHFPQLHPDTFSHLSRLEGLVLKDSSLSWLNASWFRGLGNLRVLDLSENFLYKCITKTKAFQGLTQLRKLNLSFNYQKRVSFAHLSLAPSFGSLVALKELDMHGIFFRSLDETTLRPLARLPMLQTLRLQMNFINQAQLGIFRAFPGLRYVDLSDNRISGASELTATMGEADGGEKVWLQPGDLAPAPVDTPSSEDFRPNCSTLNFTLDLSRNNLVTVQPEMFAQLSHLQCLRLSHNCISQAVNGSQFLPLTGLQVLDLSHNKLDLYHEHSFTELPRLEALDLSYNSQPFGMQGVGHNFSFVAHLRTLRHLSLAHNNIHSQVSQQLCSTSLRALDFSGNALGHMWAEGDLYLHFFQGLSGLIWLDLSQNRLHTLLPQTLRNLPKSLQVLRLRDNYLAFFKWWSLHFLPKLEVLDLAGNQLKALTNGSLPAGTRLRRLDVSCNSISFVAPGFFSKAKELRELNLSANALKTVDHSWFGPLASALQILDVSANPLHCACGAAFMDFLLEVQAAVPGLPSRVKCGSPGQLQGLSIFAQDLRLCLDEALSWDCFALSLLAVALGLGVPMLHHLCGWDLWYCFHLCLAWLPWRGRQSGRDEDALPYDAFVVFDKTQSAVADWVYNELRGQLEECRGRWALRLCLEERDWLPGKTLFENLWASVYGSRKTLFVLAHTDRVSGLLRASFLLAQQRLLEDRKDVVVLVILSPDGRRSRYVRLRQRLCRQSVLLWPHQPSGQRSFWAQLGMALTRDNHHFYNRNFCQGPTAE
Procedure: hTLR9 Antagonism (SEAP Inhibition Assay) in HEK293 Cell Lines
The SEAP reporter gene in HEK-Blue™-hTLR9 cells is placed under the control of the IFN-b minimal promoter fused to five NF-kB and AP-1 binding sites. The stimulation with a TLR9 ligand (ODN-2006) activates NF-kB and AP-1 which induces the production of SEAP. Levels of SEAP are determined with QUANTI-Blue™ detection medium that turns purple/blue in the presence of alkaline phosphatase. Decrease in the levels of SEAP production as indicated by reduction in absorbance at 650 nm is directly co-related with the TLR9 inhibitory activity of the antagonist (NCE).
HEK-Blue™-hTLR9 cells were maintained in DMEM with 10% FBS, 1% Penicillin/Streptomycin/Amphotericin (complete growth medium) and 0.2% Normocin. For the assay, cells were dissociated by washing in 1×PBS and re-suspended in complete DMEM. Cells were seeded at a density of 20000 cells per well; (40 μl per well) in a 384 well assay plate.
5 μl of 10× antagonist (NCE) was added to the cells in triplicates for each concentration. The plate was incubated for half an hour at 37° C. with 5% CO2. 5 μl of agonist (ODN-2006) was added and the plate was incubated overnight for 18 hours at 37° C. with 5% CO2. 5 μl of supernatant was transferred to a 384 well reading plate and to this 45 μl of Quanti-Blue™ detection reagent was added. The plate was then incubated for an hour at 37° C. SEAP activity in the supernatant was indicated by change in the pink color of Quanti-Blue™ detection reagent to purple/blue and the absorbance was read at 650 nm in the end point mode.

hTLR9 inhibitory activity (% at 1 μM) [%]	SMILES
95.8	CC(C)N1CCN(C2CCC(c3nccc4[nH]c(CN5CCOCC5)cc34)CC2)CC1 (centres unmarked) [Example A80, 4-[[4-[4-(4-isopropylpiperazin-1-yl)cyclohexyl]-1H-pyrrolo[3,2-c]pyridin-2-yl]methyl]morpholine]

same assay, conditions: HEK-Blue hTLR9, 1 μM; SEAP, HEK-Blue-hTLR9 cells; read-out: hTLR9 inhibitory activity (% at 1 μM)

SMILES	inhibition at 1 µM [%]
Cc1cc2[nH]c(CN3CCOCC3)cc2c(-c2ccc(C3CCN(C(C)C)CC3)cc2)n1 [Example A51, 4-[[4-[4-(1-isopropyl-4-piperidyl)phenyl]-6-methyl-1H-pyrrolo[3,2-c]pyridin-2-yl]methyl]morpholine]	100
CC(C)N1CC=C(c2ccc(-c3nccc4[nH]c(CN5CCOCC5)cc34)cn2)CC1 [Example A52, 4-[[4-[6-(1-isopropyl-3,6-dihydro-2H-pyridin-4-yl)-3-pyridyl]-1H-pyrrolo[3,2-c]pyridin-2-yl]methyl]morpholine]	84.5
CC(C)N1CCN(c2ccc(-c3nccc4[nH]c(CN5CCOCC5)cc34)cn2)CC1 [Example A53, 4-[[4-[6-(4-isopropylpiperazin-1-yl)-3-pyridyl]-1H-pyrrolo[3,2-c]pyridin-2-yl]methyl]morpholine]	77
CC(C)N1CCC(n2cc(-c3nccc4[nH]c(CN5CCOCC5)cc34)cn2)CC1 [Example A54, 4-[[4-[1-(1-isopropyl-4-piperidyl)pyrazol-4-yl]-1H-pyrrolo[3,2-c]pyridin-2-yl]methyl]morpholine]	95.4
CC(C)N1CCN(Cc2ccc(-c3nccc4[nH]c(CN5CCOCC5)cc34)cc2)CC1 [Example A55, 4-[[4-[4-[(4-isopropylpiperazin-1-yl)methyl]phenyl]-1H-pyrrolo[3,2-c]pyridin-2-yl]methyl]morpholine]	96.5
CC(C)N1CCC(Oc2ccc(-c3nccc4[nH]c(CN5CCOCC5)cc34)cc2)CC1 [Example A56, 4-[[4-[4-[(1-isopropyl-4-piperidyl)oxy]phenyl]-1H-pyrrolo[3,2-c]pyridin-2-yl]methyl]morpholine]	99.5
CC(C)N1CCN(c2cccc(-c3nccc4[nH]c(CN5CCOCC5)cc34)c2)CC1 [Example A57, 4-[[4-[3-(4-isopropylpiperazin-1-yl)phenyl]-1H-pyrrolo[3,2-c]pyridin-2-yl]methyl]morpholine]	96.9
CN1CCN(Cc2ccc(-c3nccc4[nH]c(CN5CCOCC5)cc34)cc2)CC1 [Example A60, 4-[[4-[4-[(4-methylpiperazin-1-yl)methyl]phenyl]-1H-pyrrolo[3,2-c]pyridin-2-yl]methyl]morpholine]	86
CN1CCN(c2cccc(-c3nccc4[nH]c(CN5CCOCC5)cc34)c2)CC1 [Example A61, 4-[[4-[3-(4-methylpiperazin-1-yl)phenyl]-1H-pyrrolo[3,2-c]pyridin-2-yl]methyl]morpholine]	89.5
CN1CCC(Oc2ccc(-c3nccc4[nH]c(CN5CCOCC5)cc34)cc2)CC1 [Example A62, 4-[[4-[4-[(1-methyl-4-piperidyl)oxy]phenyl]-1H-pyrrolo[3,2-c]pyridin-2-yl]methyl]morpholine]	98.2
CN1CCC(n2cc(-c3nccc4[nH]c(CN5CCOCC5)cc34)cn2)CC1 [Example A63, 4-[[4-[1-(1-methyl-4-piperidyl)pyrazol-4-yl]-1H-pyrrolo[3,2-c]pyridin-2-yl]methyl]morpholine]	93.4
CC(C)N1CCC(c2ccc(-c3nccc4[nH]c(CN5CCOCC5)cc34)cn2)CC1 [Example A64, 4-[[4-[6-(1-isopropyl-4-piperidyl)-3-pyridyl]-1H-pyrrolo[3,2-c]pyridin-2-yl]methyl]morpholine]	73
CC(C)N1CCC(c2ccc(-c3nccc4[nH]c(CN5CCOCC5)cc34)cc2)CC1 [Example A70, 4-[[4-[4-(1-isopropyl-4-piperidyl)phenyl]-1H-pyrrolo[3,2-c]pyridin-2-yl]methyl]morpholine]	100
CC(C)N1CCN(c2ccc(-c3nccc4[nH]c(CN5CC(O)C5)cc34)cc2)CC1 [Example A72, 1-[[4-[4-(4-isopropylpiperazin-1-yl)phenyl]-1H-pyrrolo[3,2-c]pyridin-2-yl]methyl]azetidin-3-ol]	100
CC(C)N1CCN(c2ccc(-c3nccc4[nH]c(CN5CCC[C@@H]5C(=O)O)cc34)cc2)CC1 [Example A74, (2R)-1-[[4-[4-(4-isopropylpiperazin-1-yl)phenyl]-1H-pyrrolo[3,2-c]pyridin-2-yl]methyl]pyrrolidine-2-carboxylic acid]	89.4
c1cc2[nH]c(CN3CCOCC3)cc2c(-c2ccc(N3CCN(C4COC4)CC3)cc2)n1 [Example A81, 4-[[4-[4-[4-(oxetan-3-yl)piperazin-1-yl]phenyl]-1H-pyrrolo[3,2-c]pyridin-2-yl]methyl]morpholine]	64

More lines, now with the values ahead:

inhibition at 1 µM [%]	SMILES
100	CC(C)N1CCN(c2ccc(-c3nccc4[nH]c(CCN5CCOCC5)cc34)cc2)CC1 [Example B1, 4-[2-[4-[4-(4-isopropylpiperazin-1-yl)phenyl]-1H-pyrrolo[3,2-c]pyridin-2-yl]ethyl]morpholine]
100	CN1CCN(c2ccc(-c3nccc4[nH]c(CCN5CCOCC5)cc34)cc2)CC1 [Example B2, 4-[2-[4-[4-(4-methylpiperazin-1-yl)phenyl]-1H-pyrrolo[3,2-c]pyridin-2-yl]ethyl]morpholine]
100	Cc1cc2[nH]c(CCN3CCOCC3)cc2c(-c2ccc(N3CCN(C(C)C)CC3)cc2)n1 [Example B3, 4-[2-[4-[4-(4-isopropylpiperazin-1-yl)phenyl]-6-methyl-1H-pyrrolo[3,2-c]pyridin-2-yl]ethyl]morpholine]
100	Cc1cc2[nH]c(CCN3CCOCC3)cc2c(-c2ccc(N3CCN(C)CC3)cc2)n1 [Example B4, 4-[2-[6-methyl-4-[4-(4-methylpiperazin-1-yl)phenyl]-1H-pyrrolo[3,2-c]pyridin-2-yl]ethyl]morpholine]
78	Cc1cc2[nH]c(CCN3CCCCC3)cc2c(-c2ccc(N3CCN(C(C)C)CC3)cc2)n1 [Example B5, 4-[4-(4-isopropylpiperazin-1-yl)phenyl]-6-methyl-2-[2-(1-piperidyl)ethyl]-1H-pyrrolo[3,2-c]pyridine]
79.7	Cc1nc(-c2ccc(N3CCN(C(C)C)CC3)cc2)c2cc(CCN3CCOCC3)[nH]c2c1C [Example B6, 4-[2-[4-[4-(4-isopropylpiperazin-1-yl)phenyl]-6,7-dimethyl-1H-pyrrolo[3,2-c]pyridin-2-yl]ethyl]morpholine]
81.6	Cc1nc(-c2ccc(N3CCN(C)CC3)cc2)c2cc(CCN3CCOCC3)[nH]c2c1C [Example B7, 4-[2-[6,7-dimethyl-4-[4-(4-methylpiperazin-1-yl)phenyl]-1H-pyrrolo[3,2-c]pyridin-2-yl]ethyl]morpholine]
93.7	CCN1CCN(c2ccc(-c3nc(C)c(C)c4[nH]c(CCN5CCOCC5)cc34)cc2)CC1 [Example B8, 4-[2-[4-[4-(4-ethylpiperazin-1-yl)phenyl]-6,7-dimethyl-1H-pyrrolo[3,2-c]pyridin-2-yl]ethyl]morpholine]

same assay, conditions: HEK-Blue hTLR9, read-out: hTLR9 inhibitory activity (% at 1 μM)

SMILES	inhibition at 1 µM [%]
CC(C)N1CCN(c2ccc(-c3nccc4[nH]c(C(=O)N5CCOCC5)cc34)cc2)CC1 [Example A82, [4-[4-(4-isopropylpiperazin-1-yl)phenyl]-1H-pyrrolo[3,2-c]pyridin-2-yl]-morpholino-methanone]	98
